We go through one substance from article PMC11904948, “Peptide‐Drug Conjugate for Therapeutic Reprogramming of Tumor‐Associated Macrophages in Breast Cancer” (Advanced Science, 2025).

Data set [1] relates to primary human macrophages. As to the kind of experiment: Cytokine secretion by primary human macrophages (bead-based multiplex panel). The data set is classed as cell-based. The conditions noted are these: 10 µM 4 h, washed, 48 h, supernatant, n = 3. On the procedure: To investigate potential off‐target risk in vivo caused by MACTIDE‐V we analyzed the serum levels of the hepatic enzyme alanine aminotransferase (ALAT) following a 3 mg Kg^−1 dose of MACTIDE‐V in healthy mice. If MACTIDE‐V causes off‐target inflammation, it would likely occur in the liver (the organ that expresses the MACTIDE receptor) and would reflect on ALAT levels (liver inflammation produces a > 2‐fold increase in ALAT^[ [35] ^]).
Figure S9. Quantification of cytokines from the supernatant of primary human macrophages treated with MACTIDE-V. Primary human macrophages (obtained from monocytes derived from human blood buffy coat) were incubated with 10µM MACTIDE-V for 4 h, followed by 2 washes with media, the cells were then placed in new media and cultured for an additional 48 h. Then, the supernatant was collected and analyzed for cytokine expression using a bead-based multiplexed cytokine panel assay (Biolegend, cat# 740502) following the manufacturer’s instructions. Anova Fisher LSD (n=3).

Another data set concerns orthotopic 4T1.2 tumors. Put plainly: MACTIDE-V + anti-PD-1 combination therapy in orthotopic 4T1.2. The data set is classed as in vivo, Balb/c mice. On the procedure:
4T1.2 bearing mice were treated with 9 doses of CtrlPep‐V, MACTIDE‐V (1 mg Kg^−1 in Verteporfin per dose), or PBS i.p. every other day according to the scheme in (A). Anti‐PD‐1 injections started 16 days post‐tumor induction (three injections of 200 µg each). Mice were sacrificed on day 29, their tumor weights were analyzed (B), pulmonary metastases area quantified from H&E‐stained sections (C), and their tumors were analyzed with flow cytometry (D–H).
5×10^5 4T1.2 cells in 50 µL of PBS were injected subcutaneously into 4th mammary fat pad. On day 8, mice were sorted into groups based on tumor volume (≈40 mm^3): PBS, anti‐PD‐1, MACTIDE‐V, MACTIDE‐V+anti‐PD‐1. Mice were treated i.p. every other day with 500 µL of MACTIDE‐V (30 nmol, 1mg kg^−1 Verteporfin) or PBS (10 injections in total). On day 18 post‐injection, MACTIDE‐V+anti‐PD‐1 and anti‐PD‐1 groups received recombiMAb anti‐mouse PD‐1 (Bioxcell, Catalog #CP151), a mouse IgG2a monoclonal antibody with the D265A mutation in the Fc fragment which renders it unable to bind to endogenous Fcγ receptors. Mice received three intraperitoneal injections of 200 µg of anti‐PD‐1 dissolved in 500 µL of PBS. […] Five tumors per group were analyzed by FC as described above. TAM/monocytes were defined as Ly6G^−CD11b^+/F4/80^+ population from the CD45^+ population.
The lungs of all mice were fixed in formalin and embedded in paraffin, and later sectioned and stained with H&E by the histology facility of Vall D´Hebron Research Institute (Barcelona, Spain). Five 10 µm‐sections spaced apart 1 mm were taken from the lungs of each mouse (n = 7 mice per group). Then, the slides were scanned, and the metastatic area divided by the total lung area was calculated for each mouse.

A short description of the next data set: Solubility in water. The data set is classed as physicochemical. The conditions noted are these: method not given. From the text:
Verteporfin (V), is a photosensitizer and inhibitor of the activation of YAP.^[ [41] ^] […] Verteporfin, in its liposomal formulation Visudyne, is an approved drug for certain ophthalmological indications. In clinical trials for cancer therapy, Verteporfin is mostly used for photodynamic therapy (clinical trial identifiers: NCT03067051, NCT03033225, NCT04590664).

The mark [2] stands for this setting: tumor flow cytometry, five tumors per group.

As to “Vert‐Ahx‐G(CTKSIPPIC)SPGAK‐OH (disulfide) [MACTIDE‐V]”, in data set [1], the “secretion of IFN‐γ” value was “did not significantly increase”, the “secretion of IL‐1RA” value is recorded as “significantly decreased”, the “secretion of IL‐12” value is “significantly increased” and the “secretion of IL‐23” value is reported as “significantly increased”. Besides, in data set [1], the “secretion of TNF‐α” value is “did not significantly increase”. Besides, the primary tumor mass entry with orthotopic 4T1.2 tumors (MACTIDE-V 30 nmol i.p. every other day, anti-PD-1 three i.p. injections of 200 µg, sacrifice day 29) was “significantly reduced the primary tumor mass”. Moreover, the pulmonary metastases result in the data set on orthotopic 4T1.2 tumors (metastatic area from H&E sections, n = 7 mice per group, compared with anti-PD-1) is on record as “superior effect on reducing pulmonary metastases”. Moreover, in the data set with orthotopic 4T1.2 tumors (tumor flow cytometry), the B cell infiltration result was “no differences in B cell infiltration”, the “expression of Granzyme B (GrzB) in CD25^+PD‐1^+ CD8^+ T cells” value is reported as “increased” and the “expression of PD‐1 on CD8^+ T cells” value is recorded as “reduced”. For the same substance, the “FOXP3^+PD‐1^+ population among CD4^+ T cells” value with orthotopic 4T1.2 tumors (tumor flow cytometry, compared to the other experimental conditions) was “decreasing trend”. In the data set on orthotopic 4T1.2 tumors (setting [2]), the “CD206^+MHCII^+ population of TAM/monocytes” value is “highest increase” and the “CD206^+MHCII^− population of TAM/monocytes” value was “highest decrease”. Also, in the data set with orthotopic 4T1.2 tumors (tumor flow cytometry, n = 5), the “CD86^+MHCII^+ population of TAM/monocytes” value is “significantly increased” and the “CD86^−MHCII^− population of TAM/monocytes” value is recorded as “decreased”. Besides, the “CD4^+ T cells, CD8^+ T cells and NK cells in tumor” value in the data set on orthotopic 4T1.2 tumors (tumor flow cytometry, statistically significant only for NK cells) was “highest increase”. In addition, the “solubilization of Verteporfin by conjugation” value in “Solubility in water” was “able to solubilize Verteporfin”.
